The values that follow come from patent US4542123A (Massachusetts Institute of Technology, priority 1982, dated 1985).

Data set [1] can be described thus: clinical. As to conditions: in vivo. On the procedure:
(§1) Six healthy, non-obese, fasting subjects each received, on different days 0, 6, 12.5, 25 or 50 g of glucose (Glucola) in a total volume of 100 ml.
Following a protocol approved by the Massachusetts Institute of Technology Committee on the Use of Humans as Experimental Subjects, 6 healthy volunteer outpatients, aged 25-33 years, participated in the study; 3 were males and 3 females. Mean weight was 60 kg for the women and 70 for the men; all subjects were within 10% of their ideal body weight as determined by Metropolitan Life Insurance Company tables. […] Subjects were asked to take meals rich in carbohydrate content (about 300 g/day) for 3 days before beginning the study. On 5 separate days, each subject fasted from 8 p.m. until 9 the next morning and then received a load of 0, 6, 12.5, 25 or 50 g of glucose (caffeine-free glucola) dissolved in water in a total volume of 100 ml; the order of doses was randomized. […] Blood was collected in heparanized tubes; after centrifugation plasma was stored at -20° C. until analyzed. […] Glucose was analyzed spectrophotometrically after reaction with O-toluidine in hot acidic acid (Sigma Bulletin #635;15). Insulin was measured using a commercial radioimmunoassay kit by a double antibody method (Bio-RIA, Louisville, Ky.). Plasma tryptophan was measured fluorometrically on 20 μl plasma aliquots by the method of Denckla and Dewey, J. Lab. […] Branched-chain amino acids and aromatic amino acids were measured in 500 μl aliquots of plasma, deproteinized with sulfosalicylic acid, using a Beckman amino acid analyzer (Beckman Instruments, Palo Alto, Calif., Model 119C).
Data, given as means ±SE errors, were analyzed by two-way analysis of variance; factors compared were dose and time. […] Areas under the curves were evaluated by the method of trapezoid approximation. […] Amino acid concentrations after treatments for each subject were also expressed as a percentage of that day's pretreatment levels; mean percent changes were then calculated for each treatment and time interval.

Data set [2] in a line: Plasma insulin after glucose ingestion, radioimmunoassay (Example I). It is filed as in vivo, human. On the procedure: as §1
Following a protocol approved by the Massachusetts Institute of Technology Committee on the Use of Humans as Experimental Subjects, 6 healthy volunteer outpatients, aged 25-33 years, participated in the study; 3 were males and 3 females. Mean weight was 60 kg for the women and 70 for the men; all subjects were within 10% of their ideal body weight as determined by Metropolitan Life Insurance Company tables. […] Subjects were asked to take meals rich in carbohydrate content (about 300 g/day) for 3 days before beginning the study. On 5 separate days, each subject fasted from 8 p.m. until 9 the next morning and then received a load of 0, 6, 12.5, 25 or 50 g of glucose (caffeine-free glucola) dissolved in water in a total volume of 100 ml; the order of doses was randomized. Venous blood samples were drawn from the antecubital vein through an indwelling catheter at 0, 60 and 120 min for all doses and additionally at 30 and 180 min for the 12.5, 25 and 50 g doses. Blood was collected in heparanized tubes; after centrifugation plasma was stored at -20° C. until analyzed. […] Glucose was analyzed spectrophotometrically after reaction with O-toluidine in hot acidic acid (Sigma Bulletin #635;15). Insulin was measured using a commercial radioimmunoassay kit by a double antibody method (Bio-RIA, Louisville, Ky.). Plasma tryptophan was measured fluorometrically on 20 μl plasma aliquots by the method of Denckla and Dewey, J. Lab. Clin. Med. 69: 160-169, 1967, as modified by Lehman, Scand. J. Clin. Lab. Invest. 28: 49-55, 1971. Branched-chain amino acids and aromatic amino acids were measured in 500 μl aliquots of plasma, deproteinized with sulfosalicylic acid, using a Beckman amino acid analyzer (Beckman Instruments, Palo Alto, Calif., Model 119C).
Data, given as means ±SE errors, were analyzed by two-way analysis of variance; factors compared were dose and time. The Scheffe test was employed to test the statistical significance of differences; p<0.05 was considered significant. Areas under the curves were evaluated by the method of trapezoid approximation. Student tests for paired data were used to evaluate the significance of changes in individual amino acids. Amino acid concentrations after treatments for each subject were also expressed as a percentage of that day's pretreatment levels; mean percent changes were then calculated for each treatment and time interval.

Consider `O=C[C@H](O)[C@@H](O)[C@H](O)[C@H](O)CO` [Glucose, glucose], for which the “Mean plasma glucose concentration” value in data set [1] (human) worked out at 83±2.2 mg %. The same compound registered a concentration at 0.5 h in data set [1] (human, po, Mean plasma glucose concentration) of 1050 ± 86 µg/mL. Also, the “Time for plasma glucose to return to baseline” value in data set [1] was 60 to 120 min. Further, the “Elevation in insulin, 50-g vs 25-g dose” value in data set [2] (50 g vs 25 g glucose) is “greater elevation in insulin than the 25-g dose in 4 of the 6 subjects”. The Insulin levels result in data set [2] (30 min after 12.5, 25 or 50 g of glucose) was “significantly elevated”. The Mean insulin concentration in data set [2] (before ingestion (baseline)) is 9±0.9 μU/ml; in data set [2] (glucose 12.5 g, 30 min) it was 21.3±3.8 μU/ml; in data set [2] (glucose 25 g, 30 min), 44±5.0 μU/ml; in data set [2] (glucose 50 g, 30 min), 58±6.9 μU/ml.
